Assay results reported in US20230077362A1 (CORTEVA AGRISCIENCE LLC, priority 2019, published 2023).
Read-outs that look alike come from different tables or passages of the source.

Tests used:
[1] = system: Beet Armyworm (Spodoptera exigua) ("BAW"), second instar larvae; experiment: Bioassay on beet armyworm (BAW), 128-well diet tray assay; type: in vivo; details: for pest or weed control at 50 µg/cm2: Spodoptera exigua; for BAW rating: C = not tested, D = no activity noticed
Procedure, shortened: (§1)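 After sealing with a clear self-adhesive lid, the trays are incubated at 25° C. with 14 h light and 10 h dark for 5 to 7 days; mortality in each well is recorded as a percentage and averaged across the eight wells.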

[2] = system: Cabbage Looper (Trichoplusia ni) ("CL"), second instar larvae; experiment: Bioassay on cabbage looper (CL), 128-well diet tray assay; type: in vivo; details: for CL rating: C = not tested, D = no activity noticed
Procedure, shortened: as §1

[3] = Trichoplusia ni, read-out: CL rating
[4] = read-out: BAW (Biological Results, rating)
[5] = Trichoplusia ni, read-out: CL (Biological Results, rating)

Compound `COC(C)c1ccc(C)cc1N1C(=O)CS/C1=N\C(=O)Nc1ccc(-n2cnc(-c3ccc(C(F)(F)F)cc3)n2)cc1F` (stereo not drawn) [Compound J695, (Z)-1-(2-Fluoro-4-(3-(4-(trifluoromethyl)phenyl)-1H-1,2,4-triazol-1-yl)phenyl)-3-(3-(2-(1-methoxyethyl)-5-methylphenyl)-4-oxothiazolidin-2-ylidene)urea] has a pest or weed control at 50 µg/cm2 ([1]; read-out: BAW rating) of 50 to 100% and a pest or weed control at 50 µg/cm2 [2, 3] of 50 to 100%.

`Cc1ccc(OCC(F)(F)F)c(N2C(=O)CS/C2=N\C(=O)Nc2ccc(-c3ncn(-c4ccc(OC(F)(F)F)cc4)n3)cc2Br)c1` [Compound J218, (Z)-1-(2-Bromo-4-(1-(4-(trifluoromethoxy)phenyl)-1H-1,2,4-triazol-3-yl)phenyl)-3-(3-(5-methyl-2-(2,2,2-trifluoroethoxy)phenyl)-4-oxothiazolidin-2-ylidene)urea] was tested, and the pest or weed control at 50 µg/cm2 [1, 4] was 50 to 100% and the pest or weed control at 50 µg/cm2 [2, 5] was 50 to 100%.

`Cc1ccc(C(C)C)c(N2C(=O)CS/C2=N\C(=O)Nc2ccc(-n3cnc(-c4ccc(OC(F)(F)F)cc4)c3)cc2Cl)c1` [Compound J792, (Z)-1-(2-Chloro-4-(4-(4-(trifluoromethoxy)phenyl)-1H-imidazol-1-yl)phenyl)-3-(3-(2-isopropyl-5-methylphenyl)-4-oxothiazolidin-2-ylidene)urea] was tested, and the “BAW rating (% control or mortality class)” value ([1]; Table ABC, species BAW, 128-well diet tray assay, second instar larvae) was “A (50-100)” and the mortality at 50 µg/cm2 ([2]; Trichoplusia ni, Table ABC, species CL, 128-well diet tray assay, second instar larvae, read-out: CL rating (% control or mortality class)) was 50 to 100%.

Work on `Cc1ccc(C(C)C)c(N2C(=O)CS/C2=N\C(=O)Nc2ccc(-c3cn(-c4ccc(OC(F)(F)F)cc4)cn3)cc2F)c1` [Compound J473, (Z)-1-(2-Fluoro-4-(1-(4-(trifluoromethoxy)phenyl)-1H-imidazol-4-yl)phenyl)-3-(3-(2-isopropyl-5-methylphenyl)-4-oxothiazolidin-2-ylidene)urea] yielded a pest or weed control at 50 µg/cm2 ([1]; read-out: BAW rating) of 50 to 100% and a pest or weed control at 50 µg/cm2 [2, 3] of 50 to 100%.

With `CCOCc1ccc(C)cc1N1C(=O)CS/C1=N\C(=O)Nc1ccc(-c2ncn(-c3ccc(S(F)(F)(F)(F)F)cc3)n2)cc1F` [Compound J445] the BAW rating ([1]; Table ABC, species BAW) was “A (50-100)” and the CL rating ([2]; Table ABC, species CL) was “A (50-100)”.

In the case of `COc1cc(-c2ncn(-c3ccc(OC(F)(F)F)cc3)n2)ccc1NC(=O)/N=C1\SCC(=O)N1c1cc(C)ccc1OCCC(F)(F)F` [Compound J91, (Z)-1-(2-Methoxy-4-(1-(4-(trifluoromethoxy)phenyl)-1H-1,2,4-triazol-3-yl)phenyl)-3-(3-(5-methyl-2-(3,3,3-trifluoropropoxy)phenyl)-4-oxothiazolidin-2-ylidene)urea], the pest or weed control at 50 µg/cm2 [1, 4] is reported as 50 to 100% and the pest or weed control at 50 µg/cm2 [2, 5] is reported as 50 to 100%.

For `CCCOCc1ccc(C)cc1N1C(=O)CS/C1=N\C(=O)Nc1ccc(-c2ncn(-c3ccc(S(F)(F)(F)(F)F)cc3)n2)cc1F` [Compound J544], the BAW rating ([1]; Table ABC, species BAW) was “A (50-100)” and the CL rating ([2]; Table ABC, species CL) was “A (50-100)”.

Work on `Cc1ccc(COCC(F)(F)F)c(N2C(=O)CS/C2=N\C(=O)Nc2ccc(-n3cnc(-c4ccc(OC(F)(F)F)cc4)n3)cc2)c1` [Compound J403, (Z)-1-(3-(5-Methyl-2-((2,2,2-trifluoroethoxy)methyl)phenyl)-4-oxothiazolidin-2-ylidene)-3-(4-(3-(4-(trifluoromethoxy)phenyl)-1H-1,2,4-triazol-1-yl)phenyl)urea] yielded a pest or weed control at 50 µg/cm2 ([1]; read-out: BAW rating) of 50 to 100% and a pest or weed control at 50 µg/cm2 [2, 3] of 50 to 100%.

`Cc1ccc(OCCC(F)(F)F)c(N2C(=O)CS/C2=N\C(=O)Nc2ccc(-c3ncn(-c4ccc(S(F)(F)(F)(F)F)cc4)n3)cc2C(F)(F)F)c1` [Compound J629, (Z)-1-(3-(5-Methyl-2-(3,3,3-trifluoropropoxy)phenyl)-4-oxothiazolidin-2-ylidene)-3-(4-(1-(4-(pentafluoro-λ^6-sulfaneyl)phenyl)-1H-1,2,4-triazol-3-yl)-2-(trifluoromethyl)phenyl)urea] showed a pest or weed control at 50 µg/cm2 ([1]; read-out: BAW rating) of 50 to 100% and a pest or weed control at 50 µg/cm2 [2, 3] of 50 to 100%.
